Experimental data reported in patent US20250205467A1, “SYSTEMS AND METHODS FOR THE TREATMENT OF CANCER USING ULTRASOUND” (Duke University, priority 2022, published 2025).

What was measured:
[1] = test system: pre-treated locally advanced or recurrent TNBC; assay: Single arm, prospective clinical trial of intratumoral pIL-12 (TAVO) monotherapy (OMS-140); type: in vivo, human; conditions: one patient previously unresponsive to anti-PD1; after 1 cycle of IL-12 treatment and 3 months of therapy
Method: The clinical safety of the therapy was tested in a single arm, prospective clinical trial of intratumoral pIL-12 (TAVO) monotherapy (OMS-140) in pre-treated locally advanced or recurrent TNBC.

[2] = test system: 4T1 tumors; conditions: combined with thermal ablative focused ultrasound; CD8 and CD4 T cell-dependent; cited from earlier work
[3] = test system: MM3MG-ESR1mut (Y537N, Y537S, D538G); assay: Response of MM3MG-ESR1mut cells to standard endocrine therapies; type: cell-based, mouse; conditions: data not shown
Method: Using DNA deep-sequencing technology, recent studies have identified several conserved mutations to the […] of ESR1 in a significant proportion (˜30-40%) of endocrine-resistant metastatic ER+ breast cancer patients. As no established models of endocrine-resistant ER+ breast cancer existed in immunocompetent mice, an ER+ endocrine resistant breast cancer cell line model was generated that would grow in immune competent syngeneic animals. MM3MG cells were artificially transformed with wild-type or mutated human ESR1 (Y537N, Y537S, D538G).
Therefore, the established murine breast cancer cell lines, MM3MG-ESR1mut (Y537N, Y537S, D538G), simulate patients' metastatic ER+ breast cancers, that are endocrine-resistant, having ESR1 gene mutation, and behave more aggressively.

nivolumab
clinical response of lung metastases [1]: profound clinical response

Nc1ccn([C@@H]2O[C@H](CO)[C@@H](O)C2(F)F)c(=O)n1 [gemcitabine]
tumor control and survival of mice [2]: enhanced tumor control and improved survival

CC/C(=C(\c1ccccc1)c1ccc(OCCN(C)C)cc1)c1ccccc1 [Tamoxifen]
sensitivity of the cells to standard endocrine therapies [3]: completely resistant
